From patent publication US20240424115A1, “LONG-ACTING INTERLEUKIN-15 RECEPTOR AGONISTS AND RELATED IMMUNOTHERAPEUTIC COMPOSITIONS AND METHODS” (Nektar Therapeutics, priority 2017, published 2024)
Values joined by “and” are separate entries in the source; they are usually repeats but may differ in a detail not shown here. Identical values can stand only once. Like-named read-outs stand apart in the source and are kept apart here.

Legend:
IL-15Rα = IL-15Rα (Homo sapiens, UniProt Q13261); experiment: Receptor affinity for IL-15Rα by surface plasmon resonance (BIAcore); format: binding
Experimental: The affinities of IL-15 and exemplary long acting rIL-15 receptor agonists were measured using Surface Plasmon Resonance (“SPR”) using a BIAcore™ SPR system. Briefly, the surface of a Biacore CM5 sensor chip was activated using a 1:1 mixture of NHS: EDC to generate active NHS esters. Goat anti-human Fc antibody was covalently attached to the surface by injecting it for five minutes in 10 mM sodium acetate (pH 4). There were approximately 8000 RU of antibodies bound to the surface. Any remaining NHS ester was then quenched with ethanolamine.
At the initiation of each injection cycle, IL-15-Rα-Fc was captured on a sensor chip channel by a five-minute injection step in PBSP. Typically, 150-200 RU of receptors were bound on the surface.
(§1) Long acting rIL-15 receptor agonist test articles were diluted to 10 µM in PBS (containing 0.05% Tween 20 and 0.1 mg/ml BSA). A series of 3-fold dilutions were made and injected onto a sensor chip which was coated with IL-15Rα. The affinities were measured by determining the ka and kd rates separately, and the ratio between kd and ka was used to calculate the Kd values.
The affinities of exemplary long-acting IL-15 receptor agonists (test articles) for the IL-15 α receptor were measured and compared to IL-15. Affinity was measured by BIAcore using IL-15Rα:Fc captured by immobilized anti-Fc.
as §1, with “The” for “Long acting rIL-15 receptor agonist”, “μM” for “µM”, “between ka and” for “between”, “kd” for “kd and ka”, “[…]” for “Kd”

human PBMCs = experiment: HuPBMC-pStat5 assay (flow cytometry, lymphocyte subpopulations); format: cell-based
Experimental: The potency of IL-15 or long acting IL-15 R agonists on various human lymphocyte subpopulations was determined by phospho-STAT5 (Y694) dose response assay. Frozen human PBMCs from multiple donors were supplied by AllCells. 1×10^6 cells/100ul were cultured in complete RPMI media for 2 hours and then incubated with the indicated concentrations (10,000ng/ml-0.001ng/ml serial dilutions) of IL-15 or conjugates for 20minutes at 37c. The cells were then fixed (using BD Cytofix) and permeabilized (using 100% pre-chilled methanol) and stained with antibodies for CD3, CD4, CD8, CD4-Tregs (CD4+CD25+Foxp3+), CD56 and phosphorylated STAT5 (Y694) before analysis by flow cytometry. Concentration-response relationships were used to calculate the EC50 values.
Assessment of in-vitro activity of exemplary long-acting IL-15 receptor agonists (e.g., Conjugates 1, 3 and 5) was carried out by investigating signaling in NK cell subsets of human PBMCs as shown in FIGS. 10A (CD56bright cells) and 10B (CD56dim cells). STAT5 phosphorylation was evaluated as previously described for assessing IL-15 signaling activity of the long acting IL-15 receptor agonists.
A second study was conducted to investigate/compare the pStat5 response of human PBMCs obtained from two donors (CD3, CD4, CD8, CD56 (bright and dim) and CD4-Tregs (CD25+Foxp3+)) to IL-15, Conjugate 1 and Conjugate 5. An […] dose response was examined using a 10-fold dilution with a dose range of 0.001-10000 ng/ml and a 20 min stimulation. Each of the test articles was diluted in IL-15 buffer+0.1% BSA.
Assessment of in vitro activity of Conjugate 1 was carried out by investigating NK and CD8 JAK/STAT signaling after treatment of human PBMCs with IL-15 or Conjugate 1 at a dose range of 0.001-10000 ng/ml. STAT5 phosphorylation was assessed as previously described.

[1] = Single dose PK study in non-human primates (plasma concentration); format: in vivo; conditions: cynomolgus monkeys, single i.v. 100 μg/kg
Experimental: Cynomolgus monkeys (n=2, 1 male and 1 female), were administered a single intravenous dose of Conjugate 1 at 10, 50 and 100 μg/kg. IL-15 was administered as a single intravenous dose at 50 μg/kg as a control. Plasma concentration of drug was determined at the indicated time points post injection (0.03, 0.25, 1, 4, 12, 24, 48, 72, 96, 120, 144, 168 hours).

[2] = Single dose PK study in mice (plasma concentration)
Experimental: C57BL/6 mice (n=3/group) were administered a single intravenous dose of IL-15 (control) at 0.3 mg/kg) or of Conjugate 2 at a dose of 0.3 mg/kg. Following administration, blood samples were collected at various time points post administration (24 hours, 48 hours, 78 hours, 96 hours). […] Finally, at each time point, plasma concentration of drug was determined.
For PK analysis, Conjugate 1 was administered as a single intravenous dose at 0.3 mg/kg in balb/c mice (n=3). Following administration, mice were humanely sacrificed and plasma was collected 24, 48, 72, 96, 120 and 144 hours post treatment. From a separate study, mice were administered a single intravenous dose of IL-15 (0.5 mg/kg). Samples from these mice were collected at the indicated time points within 6 hours of treatment.
Balb/c mice (n=3/group) were administered a single intravenous dose of IL-15 (500 ug/kg) or of Conjugate 1 at 10, 30, 100, 300 and 1000 μg/kg. Blood samples were collected at the indicated time points post administration (conjugate 1:24, 48, 72, 96, 120, 144, 240 hours; IL-15 control: 0.03, 0.08, 0.25, 0.5, 1, 2, 4, 6, 8, hours) and plasma concentration of drug was determined.

Chain of IL-15Rα (Q13261 31-205 limits assumed): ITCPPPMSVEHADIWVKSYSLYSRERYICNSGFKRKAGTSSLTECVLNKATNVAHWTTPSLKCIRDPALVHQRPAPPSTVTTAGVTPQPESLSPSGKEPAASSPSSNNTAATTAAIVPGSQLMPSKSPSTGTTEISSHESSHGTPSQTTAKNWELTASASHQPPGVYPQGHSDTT

mono-mPEG-SBA40K-IL-15 [Conjugate 1]
ka (IL-15Rα; Table 2A, IL-15Rα:Fc captured by anti-Fc): 492000 M⁻¹ s⁻¹ | dissociation rate constant (kd) (IL-15Rα; Table 2A, dissociation rate): 0.000103 s⁻¹ | Kd (IL-15Rα; Table 2A, read-out: KD): 0.209 nM | Kd (IL-15Rα; Table 2B, read-out: IL-15Rα KD): 0.201 nM and 0.209 nM | alpha receptor affinity of IL-15 retained (IL-15Rα; compared to IL-15): about 80% | EC50 (ng/ml)-% pSTAT5 CD3 donor1 (human PBMCs; CD3 cells, donor1, 20 min stimulation): 0.75 ng/ml | EC50 (ng/ml)-% pSTAT5 CD3 donor2 (human PBMCs; CD3 cells, donor2, 20 min stimulation): 1.1 ng/ml | EC50 (ng/ml)-% pSTAT5 Treg donor1 (human PBMCs; CD4-Treg cells, donor1): 0.23 ng/ml | EC50 (ng/ml)-% pSTAT5 Treg donor2 (human PBMCs; CD4-Treg cells, donor2): 0.37 ng/ml | EC50 (ng/ml)-% pSTAT5 CD4 donor1 (human PBMCs; CD4 cells, donor1): 0.75 ng/ml | EC50 (ng/ml)-% pSTAT5 CD4 donor2 (human PBMCs; CD4 cells, donor2): 0.83 ng/ml | maximum pSTAT5 response compared with IL-15 (human PBMCs; CD8 and CD56 bright NK cells): achieves the same maximum response as conventional IL-15 | EC50 (ng/ml)-% pSTAT5 CD8 donor1 (human PBMCs; CD8 cells, donor1): 0.76 ng/ml | EC50 (ng/ml)-% pSTAT5 CD8 donor2 (human PBMCs; CD8 cells, donor2): 1.54 ng/ml | EC50 (ng/ml)-% pSTAT5 CD56bright donor1 (human PBMCs; CD56bright cells, donor1): 1.4 ng/ml | EC50 (ng/ml)-% pSTAT5 CD56bright donor2 (human PBMCs; CD56bright cells, donor2): 1.9 ng/ml | EC50 (ng/ml)-% pSTAT5 CD56dim donor1 (human PBMCs; CD56dim cells, donor1): 2.9 ng/ml | EC50 (ng/ml)-% pSTAT5 CD56dim donor2 (human PBMCs; CD56dim cells, donor2): 5.9 ng/ml | less potent than IL-15 in engaging CD8 cells (human PBMCs; Example 22, % pSTAT5): 5.5 X | less potent than IL-15 in engaging CD56 bright NK cells (human PBMCs; Example 22, % pSTAT5): 15 X | IL-15 signaling (STAT5 phosphorylation) in huPBMCs (human PBMCs; NK cell subsets CD56bright, CD56dim): potently induces such signaling | EC50 (ng/ml) pSTAT5 CD56bright NK (human PBMCs; Table 3, CD56bright NK cells): 2.4 ng/ml | EC50 (ng/ml)-% pSTAT5 CD3 (human PBMCs; Table 7 Summary Table, CD3): 0.75 ng/ml | EC50 (ng/ml)-% pSTAT5 CD4 (human PBMCs; Table 7 Summary Table, CD4): 0.75 ng/ml | EC50 (ng/ml)-% pSTAT5 CD8 (human PBMCs; Table 7 Summary Table, CD8): 0.76 ng/ml | EC50 (ng/ml)-% pSTAT5 CD56bright (human PBMCs; Table 7 Summary Table, CD56bright): 1.4 ng/ml | EC50 (ng/ml)-% pSTAT5 CD56dim (human PBMCs; Table 7 Summary Table, CD56dim): 2.9 ng/ml | EC50 (ng/ml)-% pSTAT5 Treg (human PBMCs; Table 7 Summary Table, Treg): 0.23 ng/ml | IL-15 more potent than conjugate in inducing CD3, CD4, CD8 and Treg cells (human PBMCs; Table 7 data): 3-4 fold | IL-15 more potent than conjugate in inducing CD56bright and CD56dim cells (human PBMCs; Table 7 data): approximately 12 fold | IL-15 more potent than conjugate, CD3 and CD4 induction (human PBMCs; pSTAT5 EC50, CD3 and CD4): 4-6 fold | IL-15 more potent than conjugate, CD56 induction (human PBMCs; pSTAT5 EC50, CD56): ~10 fold | IL-15 more potent than conjugate, Treg and CD8 induction (human PBMCs; pSTAT5 EC50, Treg and CD8): 3-5 fold | EC50 (ng/ml)-MFI CD3 donor1 (human PBMCs; pSTAT5 MFI, CD3 cells, donor1): 22.1 ng/mL | EC50 (ng/ml)-MFI CD3 donor2 (human PBMCs; pSTAT5 MFI, CD3 cells, donor2): 108.8 ng/mL | EC50 (ng/ml)-MFI Treg donor1 (human PBMCs; pSTAT5 MFI, CD4-Treg cells, donor1): 2.5 ng/mL | EC50 (ng/ml)-MFI Treg donor2 (human PBMCs; pSTAT5 MFI, CD4-Treg cells, donor2): 2.9 ng/mL | EC50 (ng/ml)-MFI CD4 donor1 (human PBMCs; pSTAT5 MFI, CD4 cells, donor1): 23.54 ng/mL | EC50 (ng/ml)-MFI CD4 donor2 (human PBMCs; pSTAT5 MFI, CD4 cells, donor2): 106.5 ng/mL | EC50 (ng/ml)-MFI CD8 donor1 (human PBMCs; pSTAT5 MFI, CD8 cells, donor1): 16.73 ng/mL | EC50 (ng/ml)-MFI CD8 donor2 (human PBMCs; pSTAT5 MFI, CD8 cells, donor2): 99.76 ng/mL | EC50 (ng/ml)-MFI CD56bright donor1 (human PBMCs; pSTAT5 MFI, CD56bright cells, donor1): 7.8 ng/mL | EC50 (ng/ml)-MFI CD56bright donor2 (human PBMCs; pSTAT5 MFI, CD56bright cells, donor2): 12.4 ng/mL | EC50 (ng/ml)-MFI CD56dim donor1 (human PBMCs; pSTAT5 MFI, CD56dim cells, donor1): 23.25 ng/mL | EC50 (ng/ml)-MFI CD56dim donor2 (human PBMCs; pSTAT5 MFI, CD56dim cells, donor2): 73.05 ng/mL | half-life [1]: approximately 30 hours | half-life ([2]; Balb/c mice, single i.v. 10-1000 μg/kg (Example 23)): approximately 14 hours | half-life ([2]; balb/c mice, single i.v., Conjugate 1 0.3 mg/kg, IL-15 0.5 mg/kg (Example 16)): approximately 12 hours
